Laboratory results: PubChem BioAssay (NCI)
Where “and” joins values, the source holds several entries; their conditions need not be identical. Equal values may be shown once.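 Protocol summary: plate cells (96-well), add compound at 5 concentrations, incubate 48 h, interpolate endpoints linearly. Abbreviation: GI50, concentration required for 50% inhibition of growth. TGI: total growth inhibition.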

How the values were obtained:
Test in all cases: growth of human tumour cells (NCI), 48 h
KM12 colon = tested on: KM12 colon
OVCAR-5 ovarian = tested on: OVCAR-5 ovarian
SNB-19 CNS = tested on: SNB-19 CNS
COLO 205 colon = tested on: COLO 205 colon
NCI-H522 lung = tested on: NCI-H522 lung
MOLT-4 leukemia = tested on: MOLT-4 leukemia
EKVX NSCLC = tested on: EKVX NSCLC
SK-MEL-5 melanoma = tested on: SK-MEL-5 melanoma
SK-MEL-28 melanoma = tested on: SK-MEL-28 melanoma
MCF7 breast = tested on: MCF7 breast

SMILES	TGI (KM12 colon) [µM]	TGI (OVCAR-5 ovarian)	TGI (SNB-19 CNS) [µM]	TGI (COLO 205 colon)	TGI (NCI-H522 lung) [µM]	TGI (MOLT-4 leukemia) [µM]	TGI (EKVX NSCLC) [µM]	TGI (SK-MEL-5 melanoma) [µM]	TGI (SK-MEL-28 melanoma) [µM]	GI50 (KM12 colon) [µM]	GI50 (OVCAR-5 ovarian)	GI50 (SK-MEL-5 melanoma) [µM]	GI50 (SK-MEL-28 melanoma) [µM]	GI50 (MCF7 breast) [µM]	TGI (MCF7 breast) [µM]	GI50 (SNB-19 CNS) [µM]	GI50 (COLO 205 colon)	GI50 (NCI-H522 lung) [µM]	GI50 (MOLT-4 leukemia) [µM]	GI50 (EKVX NSCLC) [µM]
N#CCc1cccc(CC#N)c1Br	> 100	> 100 µM	> 100	> 100 µM	> 100	> 100	> 100													
O=C(O)CSc1n[nH]c(-c2ccco2)n1	> 100	> 100 µM	> 100	> 100 µM	> 100	> 100	> 100	> 100	> 100											
O=C1CCC(=O)N1Sc1ccccc1	> 100		> 100	> 100 µM	> 100	> 100	> 100	> 100	> 100											
COc1ccc(-c2cc(/C=C/C(=O)c3ccc(N)cc3)[nH]n2)cc1	3.42	4.92 µM	11.6	3.45 µM	2.91	9.48		9.25	4.01	1.54	2.06 µM	2.71	1.87	0.708	3.84	2.29	1.85 µM	1.21	2.32	
COc1ccc(C2=Nn3c(nnc3-n3nc(C)cc3C)SC2)cc1	> 100	> 100 µM	> 100	0.218 µM	0.529	> 100		4.23	> 100	0.057	0.34 µM	0.0489	0.294	0.0642	> 100	0.0831	0.046 µM	0.031	0.116	
O=C(O)c1ccccc1NCn1c(=S)sc2ccccc21	> 100	> 100 µM	> 100	56.7 µM	78.3	> 100	> 100		> 100						51.7					
O=NNc1ccc(S(=O)(=O)c2ccc3ccccc3c2)cn1	> 100	> 100 µM	> 100	> 100 µM	> 100		> 100	> 100	> 100						> 100					
CCOC(=O)c1c(NC(=O)c2ccc(Cl)cc2)sc2c(CN(C)C)c(O)ccc12	> 100	57.2 µM	24.8	4.1 µM	> 100	> 100	31.8	35.1		4.82	9.1 µM	10.8		7.57	> 100	5.47	1.87 µM	21	4.11	10.1
C=C1CC[C@H]2C(C)=CC[C@H]3C(=C)C(=O)O[C@@H]3[C@@H]12		> 100 µM	> 100	> 100 µM	> 100	> 100	> 100	> 100	> 100						> 100					
O=[N+]([O-])/C=C/c1ccc(Cl)cc1[N+](=O)[O-]	> 100	14.9 µM	14	3.47 µM	3.3	12.6	35.1	21.5	27.7	3.09	4.49 µM	8.47	14			3.32	1.81 µM	1.5	3.09	13.1
OCC(O)C(O)C(O)C(O)c1nnc2c(-c3ccccc3)nc3ccccc3n12 (stereo not given)	> 100	> 100 µM	> 100	> 100 µM	> 100		> 100	> 100	> 100	> 100	> 100 µM	70.3	> 100	43.5	> 100	> 100	74 µM	64.1		> 100
COc1cc(-c2nn(-c3cccc(NC(=O)CCN4CCN(c5ccccc5)CC4)c3)cc2-c2ccncc2)ccc1Cl	9.97	> 100 µM	> 100		9.69	> 100	> 100	5.36	> 100	2.45	3.15 µM	2.19	3.19	2.55	> 100	4.38		2.43	2.89	3.31
COCC(C(=O)OC1C/C=C/C=C/C(=O)OC(C(C)C(O)C(C)CCC(OC(=O)C(C)N(C)C)C(C)C(OC(C)=O)C(C)/C=C/N(C)C=O)C/C=C/C(OC)CC(C)C/C=C(\C)C(OC)CCC(C)C(O)C1C)N(C)C (stereo not given)	< 0.0001	0.162 µM	0.111		< 0.0001	> 0.201	0.0275	0.00144	0.0358	< 0.0001	< 0.0001 µM	< 0.0001	< 0.0001	< 0.0001	0.06	< 0.0001		< 0.0001	< 0.0001	< 0.0001
CN(C)CCN1CCc2c([nH]c3ccccc23)C1c1cccnc1 (stereo not given)	> 100	> 100 µM	> 100		> 100	> 100	> 100	> 100	> 100											
O=C1OC(=O)C([Se]c2ccccc2)=C1[Se]c1ccccc1		> 100 µM	> 100	> 100 µM	> 100	> 100	> 100	> 100	> 100											
N#Cc1cc(S(=O)(=O)Nc2nc3cc(Cl)ccc3o2)c(SCc2ccccc2)cc1Cl	28.1	25.7 µM	26.5	25.7 µM	25	39		28.3	25.4	14.9	13 µM	15.1	12.8	17.3	33.3	13.6	13 µM	11.6	18.6	
OCC(O)C(O)C(O)c1nn(-c2ccc(F)cc2)c2nc3cc(Cl)c(Cl)cc3nc12 (stereo not given)	84.8	> 100 µM	38	> 100 µM	31.4	48.4	49.2		41.9											
CC1(C)OC(=O)C(=C2CCC(C(=O)Nc3cccc(C(F)(F)F)c3)N2)C(=O)O1 (stereo not given)	> 100	> 100 µM	> 100	> 100 µM	> 100	> 100	> 100	> 100	> 100											
COc1cccc(/C=N\NC(=O)C(C)SC(C)C(=O)N/N=C/c2cccc(OC)c2)c1 (stereo not given)	> 67.3	> 100 µM	45.5	> 63.9 µM	59.1	> 100	60.2	> 100	> 72.8											

SMILES	TGI (KM12 colon) [µM]	TGI (OVCAR-5 ovarian)	TGI (SNB-19 CNS) [µM]	TGI (COLO 205 colon)	TGI (NCI-H522 lung) [µM]	TGI (MOLT-4 leukemia) [µM]	TGI (EKVX NSCLC) [µM]	TGI (SK-MEL-5 melanoma) [µM]	TGI (SK-MEL-28 melanoma) [µM]	GI50 (KM12 colon) [µM]	GI50 (OVCAR-5 ovarian)	GI50 (SK-MEL-5 melanoma) [µM]	GI50 (SK-MEL-28 melanoma) [µM]	GI50 (MCF7 breast) [µM]	TGI (MCF7 breast) [µM]	GI50 (SNB-19 CNS) [µM]	GI50 (COLO 205 colon)	GI50 (NCI-H522 lung) [µM]	GI50 (MOLT-4 leukemia) [µM]	GI50 (EKVX NSCLC) [µM]
COc1ccc(Br)c(C(=O)N2CCc3ccccc32)c1N	> 100	> 100 µM	> 100	> 100 µM	36.8	> 100		> 100	> 100											
Cc1cc(Cl)ccc1NC(=O)C1C(=O)N(c2ccc(Cl)cc2C)C(=O)/C1=N\NC(N)=S (stereo not given)	> 100	53.9 µM	> 100	> 100 µM	34.4	38	51.8	> 100												
Cc1ccc2ccc(-c3ccccc3)c3c2c1C(=O)c1ccccc1C3=O	> 100	> 100 µM	> 100	> 100 µM	> 100	> 100	> 100	> 100	> 100											
COc1cc(OC)c2c(=O)c3cccc([N+](=O)[O-])c3n(C)c2c1	> 100		> 100	> 100 µM	> 100	> 100	> 100	> 100	> 100											
COc1cc(-c2nn(-c3cccc(NC(=O)CCNc4ccc(N5CCOCC5)cc4)c3)cc2-c2ccncc2)ccc1Cl	20	> 100 µM	> 100		9.82	6.98	> 100	4.89	> 100	2.44	3.43 µM	1.95	3.13	2.47	11.5	3.34		2.52	1.6	3.07
CC(C)OP(=O)(O)c1ncc(-c2ccc(C(F)(F)F)cc2)c(NC2CCCCCC2)n1	> 100	> 100 µM	> 100	> 100 µM	> 100	> 100		> 100	> 100	68.8	> 100 µM	51	> 100	> 100	> 100	> 100	> 100 µM	38.5	> 100	
Cc1ccc(C2CC(c3ccc(Nc4ccnc5cc(Cl)ccc45)cc3)=NN2C=O)cc1 (stereo not given)	> 100	> 100 µM	> 100	> 100 µM		> 100		> 100	> 100	6.64	> 100 µM	1.74	> 100	8.39	> 100	> 100	4.59 µM		5.13	
O=C1C(=O)C2(CC1S(=O)(=O)c1ccccc1)c1ccccc1-c1ccccc12 (stereo not given)	33.9	46.5 µM	40.4	26.1 µM	43.1	50.5	72.8	28.2	35.8											
C1=CC2CCC1CN2CCC1CNc2ccccc21 (stereo not given)	> 100	> 100 µM	> 100		> 100	> 100	> 100		> 100											
CC(=O)Oc1cc2cnc3c4cc(OC(C)=O)c(OC(C)=O)cc4ccc3c2cc1OC(C)=O	> 100	> 100 µM	65.9	> 100 µM	4.56	> 100			> 100	2.47	3.93 µM		3.15	0.638	> 100	0.594	4.3 µM	0.392	0.812	
COc1cc(N(C)C)c(OC)cc1C=C1C=CC=C1	> 100	> 100 µM	> 100			> 100	> 100	> 100	> 100						> 100					
Nc1ccccc1C#Cc1ccccc1C#Cc1cccs1	27.7	30 µM	> 100		49.1	> 100	48.5	22.3	41	10.3	14.5 µM	7.59	15.7			29.9		18.4	32.4	18
C[C@H]1CC[P+](C)(c2ccccc2)C1 (stereo not given in full)	> 100	> 100 µM	> 100	> 100 µM	> 100	> 100	> 100	> 100	> 100											
CCCCCCCCCCCCCCCC[n+]1ccccc1		1.86 µM and 2.93 µM	1.9	0.702 µM and 1.85 µM	0.947		2.09		2.56		0.494 µM and 0.842 µM		1.25			0.559	0.255 µM and 0.495 µM	0.226		0.453
COc1ccc(C)cc1NC(=S)C#N	> 100	> 100 µM	> 100	> 100 µM				> 100	> 100						> 100					
COc1ccc(/C=N/NS(=O)(=O)c2ccccc2)cc1	> 100	> 100 µM		> 100 µM		> 100	> 100	> 100	> 100											
COc1ccc(-c2c(N)noc2-c2cc(OC)c3c(c2)OCCO3)cc1	3.8	> 100 µM	> 100	0.0398 µM		5.31	> 100	0.176	> 100	< 0.01	0.0542 µM	< 0.01	0.026	< 0.01	> 100	0.0277	< 0.01 µM		0.0353	0.046
CCCCC1(C(NC(=O)c2ccccc2Cl)c2ccncc2)C(=O)N(c2ccccc2)N(c2ccccc2)C1=O (stereo not given)	> 100	> 100 µM	> 100	52.6 µM	> 100	50.3	> 100	60	> 100											
